Measured values taken from the supplement of paper PMC11451515.

Key:
Settings in all cases: 48 h
SEM cells [1] = assay: cell viability relative to DMSO control; higher = less cytotoxic
Outline: (§1)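 Viability values are per-plate percentages of DMSO wells, with background from cell-free wells. Library compounds in DMSO were pin-dosed, in an 11-point threefold series from 47 μM to 0.79 nM, onto NOMO1 or SEM (500 cells/well) or P12-Ichikawa (1000 cells/well) leukemia cells in 1536-well plates (5 μl). Those cells had been adapted for at least four passages in each medium, and CellTiter-Glo One luminescence was read after 48 h at 37°C.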

P12-Ichikawa [2] = assay: as above
Outline: as §1

NOMO1 [3] = assay: as above
Outline: as §1

SEM cells [4] = assay: AUC of viability dose-response curve (% viability x log10 dose units); higher = less sensitive
Outline: (§2)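 Over 48 h at 37°C, leukemia cells in 1536-well plates (500 or 1000 cells/well), adapted to each medium, received library compounds in DMSO at 11 threefold doses from 47 μM to 0.79 nM. CellTiter-Glo One luminescence, normalised per plate to DMSO and cell-free wells, was fitted by a four-parameter log-logistic function of log10 dose. The area under the curve was then integrated by trapezoidal rule, after scaling curves above full viability and removing those that failed quality control.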

P12-Ichikawa [5] = assay: as above
Outline: as §2

NOMO1 [6] = assay: as above
Outline: as §2

OC1=C(Cl)C=C(N\C2=C(\C(=O)NC2=O)C3=C(C=CC=C3)[N+]([O-])=O)C=C1
cell viability [%]
Settings	NOMO1 [3]	P12-Ichikawa [2]	SEM cells [1]
HPLM + 10% dialyzed FBS, 0.000781 µM	100	100	78.4
HPLM + 10% dialyzed FBS, 0.00234 µM	98.3	100	92.9
HPLM + 10% dialyzed FBS, 0.00702 µM	103	98.9	105
HPLM + 10% dialyzed FBS, 0.0211 µM	106	102	96.9
HPLM + 10% dialyzed FBS, 0.0632 µM	120	112	93
HPLM + 10% dialyzed FBS, 0.19 µM	106	97.7	102
HPLM + 10% dialyzed FBS, 0.569 µM	83.8	103	98
HPLM + 10% dialyzed FBS, 1.71 µM	70	99.5	115
HPLM + 10% dialyzed FBS, 5.12 µM	68.9	90.1	86.9
HPLM + 10% dialyzed FBS, 15.4 µM	56.8	87.4	56.3
HPLM + 10% dialyzed FBS, 46.1 µM	60.7	79.5	6
RPMI 5 mM glucose + 10% FBS, 0.000781 µM	94.3	98.6	103
RPMI 5 mM glucose + 10% FBS, 0.00234 µM	106	109	109
RPMI 5 mM glucose + 10% FBS, 0.00702 µM	116	105	106
RPMI 5 mM glucose + 10% FBS, 0.0211 µM	102	110	123
RPMI 5 mM glucose + 10% FBS, 0.0632 µM	99.5	99.4	109
RPMI 5 mM glucose + 10% FBS, 0.19 µM	95.9	98.9	120
RPMI 5 mM glucose + 10% FBS, 0.569 µM	94.5	111	104
RPMI 5 mM glucose + 10% FBS, 1.71 µM	95.4	105	104
RPMI 5 mM glucose + 10% FBS, 5.12 µM	86.5	104	93.6
RPMI 5 mM glucose + 10% FBS, 15.4 µM	69.6	83.9	60.8
RPMI 5 mM glucose + 10% FBS, 46.1 µM	10.1	58.1	25.2
RPMI 5 mM glucose + 10% dialyzed FBS, 0.000781 µM	90.2	100	94.7
RPMI 5 mM glucose + 10% dialyzed FBS, 0.00234 µM	98.7	107	99.1
RPMI 5 mM glucose + 10% dialyzed FBS, 0.00702 µM	102	112	98.2
RPMI 5 mM glucose + 10% dialyzed FBS, 0.0211 µM	112	115	99.4
RPMI 5 mM glucose + 10% dialyzed FBS, 0.0632 µM	119	110	113
RPMI 5 mM glucose + 10% dialyzed FBS, 0.19 µM	116	109	98.9
RPMI 5 mM glucose + 10% dialyzed FBS, 0.569 µM	96.4	113	116
RPMI 5 mM glucose + 10% dialyzed FBS, 1.71 µM	94.2	106	110
RPMI 5 mM glucose + 10% dialyzed FBS, 5.12 µM	78.6	109	88.2
RPMI 5 mM glucose + 10% dialyzed FBS, 15.4 µM	73.9	86.7	62.8
RPMI 5 mM glucose + 10% dialyzed FBS, 46.1 µM	12.1	69.5	27.2

AUC of viability dose-response curve
Settings	NOMO1 [6]	P12-Ichikawa [5]	SEM cells [4]
HPLM + 10% dialyzed FBS	400	457	419
RPMI 5 mM glucose + 10% FBS	431	456	426
RPMI 5 mM glucose + 10% dialyzed FBS	427	459	434

C[C@H](NC(=O)[C@@H](O)c1cc(F)cc(F)c1)C(=O)N[C@@H]1C(=O)N(C)c2ccccc2-c2ccccc21
cell viability [%]
Settings	NOMO1 [3]	P12-Ichikawa [2]	SEM cells [1]
HPLM + 10% dialyzed FBS, 0.000781 µM	–	118	–
HPLM + 10% dialyzed FBS, 0.00234 µM	–	116	–
HPLM + 10% dialyzed FBS, 0.00702 µM	–	111	–
HPLM + 10% dialyzed FBS, 0.0211 µM	–	119	–
HPLM + 10% dialyzed FBS, 0.0632 µM	–	106	–
HPLM + 10% dialyzed FBS, 0.19 µM	–	108	–
HPLM + 10% dialyzed FBS, 0.569 µM	–	105	–
HPLM + 10% dialyzed FBS, 1.71 µM	–	101	–
HPLM + 10% dialyzed FBS, 5.12 µM	–	96.8	–
HPLM + 10% dialyzed FBS, 15.4 µM	–	102	–
HPLM + 10% dialyzed FBS, 46.1 µM	–	90.1	–
RPMI 5 mM glucose + 10% FBS, 0.000781 µM	103	114	120
RPMI 5 mM glucose + 10% FBS, 0.00234 µM	115	116	121
RPMI 5 mM glucose + 10% FBS, 0.00702 µM	106	119	120
RPMI 5 mM glucose + 10% FBS, 0.0211 µM	122	115	135
RPMI 5 mM glucose + 10% FBS, 0.0632 µM	109	114	122
RPMI 5 mM glucose + 10% FBS, 0.19 µM	114	111	128
RPMI 5 mM glucose + 10% FBS, 0.569 µM	104	102	107
RPMI 5 mM glucose + 10% FBS, 1.71 µM	86.6	90.5	115
RPMI 5 mM glucose + 10% FBS, 5.12 µM	97.7	99.8	111
RPMI 5 mM glucose + 10% FBS, 15.4 µM	101	101	121
RPMI 5 mM glucose + 10% FBS, 46.1 µM	97.3	94.3	85.9
RPMI 5 mM glucose + 10% dialyzed FBS, 0.000781 µM	119	114	–
RPMI 5 mM glucose + 10% dialyzed FBS, 0.00234 µM	116	110	–
RPMI 5 mM glucose + 10% dialyzed FBS, 0.00702 µM	119	109	–
RPMI 5 mM glucose + 10% dialyzed FBS, 0.0211 µM	113	109	–
RPMI 5 mM glucose + 10% dialyzed FBS, 0.0632 µM	113	106	–
RPMI 5 mM glucose + 10% dialyzed FBS, 0.19 µM	105	101	–
RPMI 5 mM glucose + 10% dialyzed FBS, 0.569 µM	101	99.6	–
RPMI 5 mM glucose + 10% dialyzed FBS, 1.71 µM	113	106	–
RPMI 5 mM glucose + 10% dialyzed FBS, 5.12 µM	102	95.8	–
RPMI 5 mM glucose + 10% dialyzed FBS, 15.4 µM	97.3	94.3	–
RPMI 5 mM glucose + 10% dialyzed FBS, 46.1 µM	84.5	78.5	–

AUC of viability dose-response curve
Settings	NOMO1 [6]	P12-Ichikawa [5]	SEM cells [4]
HPLM + 10% dialyzed FBS	402	432	440
RPMI 5 mM glucose + 10% FBS	450	441	453
RPMI 5 mM glucose + 10% dialyzed FBS	432	437	417

OC1CCC(CC1)N2\C=N/C3=C(C2=N)C(=C([N]3CC4=CC=CC=C4)C5=CC=CC=C5)C6=CC=CC=C6 (stereo not given)
cell viability [%]
Settings	NOMO1 [3]	SEM cells [1]
HPLM + 10% dialyzed FBS, 0.000781 µM	115	117
HPLM + 10% dialyzed FBS, 0.00234 µM	133	123
HPLM + 10% dialyzed FBS, 0.00702 µM	121	134
HPLM + 10% dialyzed FBS, 0.0211 µM	144	116
HPLM + 10% dialyzed FBS, 0.0632 µM	142	113
HPLM + 10% dialyzed FBS, 0.19 µM	130	98.9
HPLM + 10% dialyzed FBS, 0.569 µM	130	46.8
HPLM + 10% dialyzed FBS, 1.71 µM	93.8	47.2
HPLM + 10% dialyzed FBS, 5.12 µM	81	38.6
HPLM + 10% dialyzed FBS, 15.4 µM	74.9	39
HPLM + 10% dialyzed FBS, 46.1 µM	9.01	41
RPMI 5 mM glucose + 10% FBS, 0.000781 µM	–	110
RPMI 5 mM glucose + 10% FBS, 0.00234 µM	–	117
RPMI 5 mM glucose + 10% FBS, 0.00702 µM	–	131
RPMI 5 mM glucose + 10% FBS, 0.0211 µM	–	108
RPMI 5 mM glucose + 10% FBS, 0.0632 µM	–	102
RPMI 5 mM glucose + 10% FBS, 0.19 µM	–	97.6
RPMI 5 mM glucose + 10% FBS, 0.569 µM	–	47.4
RPMI 5 mM glucose + 10% FBS, 1.71 µM	–	39.4
RPMI 5 mM glucose + 10% FBS, 5.12 µM	–	37
RPMI 5 mM glucose + 10% FBS, 15.4 µM	–	37.8
RPMI 5 mM glucose + 10% FBS, 46.1 µM	–	24

AUC of viability dose-response curve
Settings	NOMO1 [6]	P12-Ichikawa [5]	SEM cells [4]
HPLM + 10% dialyzed FBS	399	437	329
RPMI 5 mM glucose + 10% FBS	402	395	323
RPMI 5 mM glucose + 10% dialyzed FBS	403	408	353

CC(C)CC(=O)Nc1n[nH]c2c1CN(C(=O)C1CCN(C)CC1)C2(C)C
NOMO1 [3], HPLM + 10% dialyzed FBS
Settings	cell viability [%]
0.000781 µM	112
0.00234 µM	154
0.00702 µM	113
0.0211 µM	131
0.0632 µM	85.3
0.19 µM	94.5
0.569 µM	103
1.71 µM	61.4
5.12 µM	71.1
15.4 µM	18.5
46.1 µM	3.76

AUC of viability dose-response curve
Settings	NOMO1 [6]	P12-Ichikawa [5]	SEM cells [4]
HPLM + 10% dialyzed FBS	331	311	320
RPMI 5 mM glucose + 10% FBS	370	351	338
RPMI 5 mM glucose + 10% dialyzed FBS	325	345	338
